Values quoted from earlier work as cited in US20250313559A1 (Bayer Aktiengesellschaft, priority 2024, published 2025).
“Also recorded” adds a separate entry of the source.

Legend:
[1] = test system: patients with HF and LVEF 35%; conditions: EMPHASIS-HF; HFrEF; cited from earlier work
[2] = test system: patients with HF and LVEF 45%; conditions: TOPCAT; HFmrEF/HFpEF; cited from earlier work
patients with HFpEF = conditions: TOPCAT, global trial; cited from earlier work
[3] = test system: patients with HF and left ventricular ejection fraction (LVEF) 35%; conditions: RALES; HFrEF; cited from earlier work

SMILES | Risk of death and hospitalization [1] | Primary endpoint (first heart failure hospitalization or cardiovascular death) [2] | primary composite endpoint (patients with HFpEF) | Risk of death and hospitalization [3]
COC(=O)[C@@H]1CC2=CC(=O)CC[C@]2(C)[C@@]23O[C@@H]2C[C@@]2(C)[C@@H](CC[C@@]24CCC(=O)O4)[C@H]13 [eplerenone] | decrease the risk of death and hospitalization | – | – | –
CC(=O)S[C@@H]1CC2=CC(=O)CC[C@]2(C)[C@H]2CC[C@@]3(C)[C@@H](CC[C@@]34CCC(=O)O4)[C@H]12 [spironolactone] | – | did not reduce the primary endpoint; also recorded: did not improve the primary outcome | did not reduce the primary endpoint; also recorded: did not demonstrate benefit | decrease the risk of death and hospitalization
